# Test results reported in PMC4352194, “Physicochemical and Biological Properties of Oxovanadium(IV), Cobalt(II) and Nickel(II) Complexes with Oxydiacetate Anions” (Biological Trace Element Research, 2014).
# Read-outs that look alike come from different tables or passages of the source.
# Assays:
# Type in all cases: cell-based
# [1] = test system: Human Dermal Fibroblasts adult (HDFa) cell line; experiment: Cytotoxicity assay (MTT); conditions: for viability of the cells / cytotoxic effect / LC50 / CC50: HDFa, MTT; for viability of the cells: 500 μM; for cytotoxic effect: 1–500 μM; for CC50: read-out: LC50 (the source's name)
# Protocol: The Human Dermal Fibroblasts adult (HDFa) cell line (Cascade Biologics) was used in all experiments. Unless otherwise specified, cells were grown in the Dulbecco’s modified Eagle’s medium (DMEM) supplemented with 10 % fetal bovine serum (FBS) and 1× antibiotic and antimycotic solutions (all purchased from Sigma) and incubated at 310.15 K in the humidified 5 % CO2 atmosphere.
# HDFa cells were plated at 6 × 10^3 cells per well in a 96-well tissue culture plate and incubated overnight at 310.15 K to allow the attachment. The growth medium was substituted with the medium supplemented with tested complex compounds. After 24- or 48-h incubation, the cell viability was assessed using the MTT solution (3-(4,5-dimethylthiazol-2-yl)-2,5-diphenyltetrazolium bromide [Sigma]) at a concentration of 1 mg/mL prepared in the RPMI-1640 medium (Sigma). After 2-h incubation at 310.15 K, the amount of purple formazan product, dissolved in dimethylsulfoxide (DMSO) (Sigma), was quantified by measuring the absorbance at 550 nm.
# [2] = test system: Human Dermal Fibroblasts adult (HDFa) cell line; experiment: Proliferation assay (BrdU ELISA); conditions: 6 day-exposure, 24-h BrdU incorporation
# Protocol: The Human Dermal Fibroblasts adult (HDFa) cell line (Cascade Biologics) was used in all experiments. Unless otherwise specified, cells were grown in the Dulbecco’s modified Eagle’s medium (DMEM) supplemented with 10 % fetal bovine serum (FBS) and 1× antibiotic and antimycotic solutions (all purchased from Sigma) and incubated at 310.15 K in the humidified 5 % CO2 atmosphere. The antiproliferative activity of compounds was assessed using the Cell Proliferation ELISA, BrdU (colorimetric) kit (Roche Applied Science). Cells were seeded at a number of 10^3 cells per well of 96-well tissue culture plate and incubated overnight at 310.15 K. The growth medium was substituted with the medium supplemented with tested compounds, and after 5 days of incubation, labelling with 5-bromo-2′-deoxyuridine (BrdU) was performed for another 24 h. Following steps were performed according to the manufacturer’s protocol.
# [3] = test system: Human Dermal Fibroblasts adult (HDFa) cell line; experiment: Cytoprotective activity against H2O2 oxidative damage (MTT)
# Protocol: The Human Dermal Fibroblasts adult (HDFa) cell line (Cascade Biologics) was used in all experiments. Unless otherwise specified, cells were grown in the Dulbecco’s modified Eagle’s medium (DMEM) supplemented with 10 % fetal bovine serum (FBS) and 1× antibiotic and antimycotic solutions (all purchased from Sigma) and incubated at 310.15 K in the humidified 5 % CO2 atmosphere. Cells were plated at 2 × 10^3 cells per well of 96-well tissue culture plate. After an overnight incubation, cells were washed with DMEM without FBS and next treated with 1 mM hydrogen peroxide (H2O2) (Sigma) together with different concentrations of tested complex compounds or with 1 mM H2O2 alone to induce the oxidative damage to cells resulting in the necrotic death. Mixtures were prepared in the growth medium (DMEM) without FBS. Cells treated with the growth medium only were used as a control of normal viability. After 1-h incubation at 310.15 K, the medium was removed and cells were washed with the growth medium containing 10 % FBS to stop the H2O2 activity. Next, either the cell viability was assessed using the MTT solution (see previous paragraph) or additional incubation of cells in DMEM containing 10 % FBS for another 48 h was performed and then cells were tested for the viability (the MTT assay). The cytoprotective activity of complex compounds against the oxidative damage was calculated relatively to untreated control cells, not exposed to H2O2.
# Bacillus subtilis [4] = experiment: Broth dilution test (MIC, MBC); conditions: B. subtilis, broth dilution 1–2048 μg/mL
# Protocol: The antimicrobial activity of complex compounds was assessed against Bacillus subtilis, Escherichia coli, Enterococcus faecalis, Pseudomonas aeruginosa, Staphylococcus aureus, Staphylococcus epidermidis (all strains were from the collection of the Department of Molecular Biology, University of Gdańsk). All bacteria were cultured in the Luria-Bertani (LB) broth at 310.15 K in the air with shaking. LB agar plates were prepared by the supplementation of LB broth with the 1.5 % bacteriological agar. Stock solutions of complex compounds were freshly prepared in the LB broth at the concentration of 25 mg/mL. The antimicrobial activity was assessed with the broth dilution method. The LB broth supplemented with the twofold diluted amount of tested compounds (dilution range 1–2048 μg/mL) was inoculated with 10^6 cfu of bacteria cells per well of 96-well plate. Cultures were incubated at 310.15 K with shaking for 18–20 h in the air, and the bacterial growth was estimated by measuring the optical density at 600 nm with the LB broth as a background control. A minimum inhibitory concentration (MIC) was defined as the lowest concentration of the tested compound (in μg/mL) at which there was no visible growth of bacteria compared to the growth observed for the inoculated LB broth without any supplementation. […] The concentration (in μg/mL) at which no colonies were observed was defined as MBC.
# Bacillus subtilis [5] = experiment: Disc diffusion test; conditions: B. subtilis
# Protocol: The antimicrobial activity of complex compounds was assessed against Bacillus subtilis, Escherichia coli, Enterococcus faecalis, Pseudomonas aeruginosa, Staphylococcus aureus, Staphylococcus epidermidis (all strains were from the collection of the Department of Molecular Biology, University of Gdańsk). All bacteria were cultured in the Luria-Bertani (LB) broth at 310.15 K in the air with shaking. LB agar plates were prepared by the supplementation of LB broth with the 1.5 % bacteriological agar. Stock solutions of complex compounds were freshly prepared in the LB broth at the concentration of 25 mg/mL. Aliquots of 0.05 mL of bacterial culture at the optical density at 600 nm of 0.1 (inoculum 5 × 10^6 cells per plate) were spread on LB agar plates. Sterile filter paper discs (of 6 mm diameter) were impregnated with solutions of complex compounds prepared in the deionized water at the following amounts: 0.1, 0.2, 0.5 and 1.0 mg per disc and placed on agar plates. After an overnight incubation at 310.15 K, zones of bacterial growth inhibition were measured. Neomycin at the amount of 0.1 mg/disc was used as a control.
# [6] = 1 mM H2O2 with complex 1 h, then additional 48-h incubation in growth medium
# [7] = 1 mM H2O2 with complex, 1-h exposure
SMILES,viability of the cells ([1]; 24 h),viability of the cells ([1]; 48 h),cytotoxic effect ([1]; 24 h),LC50 ([1]; 24-h exposure time),IC25 [2] [µM],IC50 [2] [µM],IC75 [2] [µM],"cytoprotective activity against oxidative damage [3, 6]","cytoprotective activity against oxidative damage [3, 7]",MIC (Bacillus subtilis [4]) [µg/mL],Zone of growth inhibition (Bacillus subtilis [5]; 500 μg/disc) [mm],Zone of growth inhibition (Bacillus subtilis [5]; 1000 μg/disc) [mm],CC50 ([1]; 48-h exposure time) [µM],other results
"O.O.O.O=C(O)COCC(=O)O.[Co] [Co(ODA), [Co(ODA)(H2O)2]·H2O]",no less than 95%,about 90%,no significant cytotoxic effects,Immeasurable,128.90,175,>1000,grow and proliferate at similar levels to untreated control cells,highest dose- and time-dependent protective effect,256,9,11,–,"LC25 [1]: Immeasurable; LC75 [1]: Immeasurable; LC50 ([1]; 48-h exposure time): Immeasurable; IC50 ([2]; listed as Co(II) complex): ~200 µM; viability of cells ([3]; 1 mM H2O2 together with 500 μM complex, 1 h): ca. 100%"
"O.O.O.O.O.O.O.O.O.O=C([O-])COCC(=O)[O-].O=C([O-])COCC(=O)[O-].[Ni+2].[Ni+2] [Ni(ODA), [Ni(ODA)(H2O)3]·1.5H2O]",no less than 95%,~75%,no significant cytotoxic effects,Immeasurable,148.65,220,>1000,no influence on the viability of cells,no influence on the viability of cells,512,8,8,1310,IC50 ([2]; listed as Ni(II) complex): ~200 µM
"O.O.O=C([O-])COCC(=O)[O-].[O]=[V+2] [VO(ODA), [VO(ODA)(H2O)2]]",–,–,exhibits the cytotoxic effect,–,23.41,24.9,26.42,induces the cell death,"to some extent, exhibits the cytoprotective activity",2048,–,7,87.5,CC50 ([1]; 24-h exposure time): 296 µM; IC50 ([2]; listed as oxovanadium(IV) complex): 25 µM
